Laboratory results as given in US7723021B2, “Methods for treating lentivirus infections” (The J. David Gladstone Institutes, priority 2003, dated 2010).
“Also recorded” adds a separate entry of the source. Non-standard residues stand in square brackets, D forms with d. Residues, ends and D or L forms follow the SMILES beside them. *: point of attachment. Nle = CCCC[C@H](N)C(=O)O; Cbz = O=C(OCc1ccccc1)*

How the values were obtained:
[1] = tested on: Vif-mediated depletion of APOBEC3G-HA in 293T cells; assay: Proteasome inhibitor panel in 293T cells transiently transfected with APOBEC3G-HA and Vif, immunoblot; type: cell-based; settings: 15 hours
Method: 293T cells were transfected with the indicated amounts of expression vector DNA using the calcium phosphate method. Lysis buffers used for immunoblotting were (1) 100-400 mM NaCl, 50 mM Hepes, 0.2% NP40, 0-5 mM EDTA, 0.1 mM PMSF, plus complete protease inhibitor cocktail (Roche)(1 tablet/50 ml buffer) or (2) 50 mM Hepes, pH 7.2, 135 mM NaCl, 1% Triton X-100, 0.5% deoxycholate, 10% glycerol, 1 mM EDTA, 1× protease inhibitor cocktail (Calbiochem). Samples were analyzed using standard SDS-PAGE techniques.
(§1) For the proteasome inhibitor experiments in transiently transfected cells, 293T cells were transiently transfected with 0.1 μg of APOBEC3G-HA DNA, 2 μg of control vector DNA and 2 μg of either pcDNA3.1 Vif DNA vector or an additional 2 μg of control vector DNA. Twenty-four hours after transfection, the cells were treated with the indicated inhibitor and harvested 15 hours later. For the proteasome inhibitor experiments using infected H9 cells, H9 cells were infected by spinoculation as described above. Forty-four hours after infection, the cells were treated for 16 hours with either dimethylsulfoxide (DMSO) (0.1%) or 0.25 μM epoxomicin. All of the inhibitors (ALLN, MG132, epoxomicin, Calpain Inhibitor III, and clasto-Lactacystin-β-Lactone) were purchased from CalBiochem and were dissolved in DMSO.
To confirm this finding in a different system, a similar experiment was performed using 293T cells transiently transfected with an APOBEC3G-HA expression vector and either a Vif expression vector or a control vector. Twenty-four hours after transfection the cells were treated with a panel of different proteasome inhibitors for a 15-hour period. It was observed that the broadly acting proteasome inhibitors MG132 (12.5 μM) and ALLN (25 μM) as well as the more specific proteasome inhibitor clasto-Lactacystin-β-Lactone ([…], 20 μM) enhanced the levels of APOBEC3G-HA in the presence of Vif when compared to the diluent control sample (0.1% DMSO) (FIG. 8C, lanes 7 through 12).
(§2) FIG. 8A-C. Vif shortens the half-life of APOBEC3G, and proteasome inhibitors partially block the intracellular depletion of APOBEC3G-HA. (A) Pulse-Chase Radiolabeling. HEK 293 cells transiently transfected with APOBEC3G-HA and Vif or control vector DNA were pulse-labeled for 30 min. The initial pulse-labeled (t=0) samples were harvested, and the remaining samples were incubated with chase media for the indicated time points. After immunoprecipitation with anti-HA antibody, the samples were analyzed by SDS-PAGE and the gels were subjected to autoradiography. The relative intensity of the bands were quantified and the Vif (+) and Vif (−) samples were normalized to 1 and graphed (FIG. 8, right side). The T1/2 of APOBEC3G was 1.9 hours in the presence of Vif and 10 hours in the absence of Vif. (B) Proteasome inhibitor studies using infected H9 cells. Mock or HIV-1 wt-infected H9 cells were treated with the broadly active proteasome inhibitor epoxomicin (0.25 μM) or DMSO (0.1%) 44 hours after infection. Sixteen hours following treatment, the cells were harvested; and whole cell lysates were prepared by boiling the cells in Laemmli lysis buffer. Note that Epoxomicin caused an increase in endogenous APOBEC3G levels in the infected sample (compare lane 2 with lane 1). (C) Proteasome inhibitor studies using transiently-transfected 293T cells. Twenty-four hours following transfection of 293T cells with 0.1 μg APOBEC3G and 2 μg Vif or control vector DNA, the cells were treated with the indicated concentration of inhibitor for 15 hours. APOBEC3G-HA levels were elevated in the presence of the proteasome inhibitors MG132, ALLN, and clasto-lactacystin-β-lactone (lanes 8-11), but not in the presence of calpain inhibitor III (lane 12).

[2] = tested on: APOBEC3G in peripheral blood lymphocytes; assay: PBLs incubated with stimulant for 48 hours, Western blot for APOBEC3G (Example 2); type: cell-based, Human; settings: incubated with stimulant for 48 hours versus unstimulated
Method: Human peripheral blood lymphocytes (PBLs) were isolated from blood and then incubated with anti-CD3 antibody (α-CD3), anti-CD28 antibody (α-CD28), IL-9, IL-12, IL-13, IL-15, or IFN-γ for 48 hours. Cells were lysed, the lysates clarified, and the protein concentration of the lysates was quantitated. Equal amounts of proteins in the lysates were separated by SDS-PAGE. After separation of the proteins by SDS-PAGE, the proteins were transferred to a membrane, and antibody to APOBEC3G was used to detect APOBEC3G protein on the membrane. The results are depicted in FIGS. 1-13.
FIG. 11 depicts the effect of PHA, anti-CD3 antibody, anti-CD28 antibody, and IL-15 on the level of APOBEC3G in peripheral blood lymphocytes. […] Western blot of cell lysates deriving from stimulated and unstimulated peripheral blood lymphocytes. PBLs were isolated from blood and then incubated with the indicated stimulant for 48 hours. Following separation of the proteins by SDS-PAGE, antibody to APOBEC3G was used to detect APOBEC3G protein. As a loading control, anti-β-actin was used to detect β-actin.

[3] = tested on: Vif-induced degradation of APOBEC3G (26S proteasome) in H9 cells; assay: Proteasome inhibitor experiment in HIV-1 wt-infected or mock-infected H9 cells, immunoblot of whole cell lysates; type: cell-based, human; settings: 0.25 μM; for APOBEC3G levels in infected cells compared to DMSO-treated cells: treated 16 hours, 44 hours after infection
Method: as §1
To investigate whether the 26S proteasome might mediate the Vif-induced degradation of APOBEC3G, H9 cells were infected with HIV-1 wt or were mock-infected. […] Whole cell lysates were subsequently prepared by boiling the cells in Laemmli lysis buffer, followed by protein separation by SDS-PAGE and immunoblotting. As expected, APOBEC3G levels were much lower in the infected sample when compared to the uninfected sample (FIG. 8B, lanes 1 and 3).
as §2, with “APOBEC3G-HA levels were elevated in the presence of the proteasome inhibitors MG132, ALLN, and clasto-lactacystin-β-lactone (lanes 8-11), but not in the presence of calpain inhibitor III (lane 12).” left out

CCCC[C@@H](C=O)NC(=O)[C@H](CC(C)C)NC(=O)[C@H](CC(C)C)NC(C)=O [ALLN] (Ac-Leu-Leu-[Nle]-aldehyde)
levels of APOBEC3G-HA in the presence of Vif compared to diluent control (0.1% DMSO) ([1]; 25 μM): enhanced; also recorded: elevated

CC(C)[C@H](NC(=O)OCc1ccccc1)C(=O)N[C@H](C=O)Cc1ccccc1 [Calpain Inhibitor III] (Cbz-Val-Phe-aldehyde)
levels of APOBEC3G-HA in the presence of Vif compared to diluent control (0.1% DMSO) ([1]; 50 μM): did not cause an increase | levels of APOBEC3G-HA in the presence of Vif compared to diluent control (0.1% DMSO) ([1]; 50 μM, listed as calpain inhibitor III): not

CCCCCCCCCCCCCC(=O)O[C@@H]1[C@@H](C)[C@@]2(O)[C@@H](C=C(CO)C[C@]3(O)C(=O)C(C)=C[C@@H]23)[C@@H]2C(C)(C)[C@]12OC(C)=O [PMA, phorbol-12-myristate-13-acetate]
level of APOBEC3G in peripheral blood lymphocytes [2]: upregulated

CC(C)[C@H](O)[C@@]12NC(=O)[C@H](C)[C@@H]1OC2=O [clasto-Lactacystin-β-Lactone]
levels of APOBEC3G-HA in the presence of Vif compared to diluent control (0.1% DMSO) ([1]; 110 μM, 20 μM): enhanced | levels of APOBEC3G-HA in the presence of Vif compared to diluent control (0.1% DMSO) ([1]; 110 μM, 20 μM, listed as clasto-lactacystin-β-lactone): elevated

CC[C@H](C)[C@H](NC(=O)[C@H]([C@@H](C)CC)N(C)C(C)=O)C(=O)N[C@H](C(=O)N[C@@H](CC(C)C)C(=O)[C@@]1(C)CO1)[C@@H](C)O [epoxomicin]
Vif levels ([3]; HIV-1 wt-infected H9 cells, 16 hours): increase | APOBEC3G levels in infected cells compared to DMSO-treated cells ([3]; HIV-1 wt-infected H9 cells): elevated | APOBEC3G levels in infected cells compared to DMSO-treated cells ([3]; HIV-1 wt-infected H9 cells, listed as Epoxomicin): increase | level of APOBEC3G in the uninfected cultures ([3]; mock-infected H9 cells, 16 hours): did not appear to cause a similar increase

CC(=O)O[C@@]12C[C@@H](C)[C@@]3(O)[C@@H](C=C(CO)C[C@]4(O)C(=O)C(C)=C[C@@H]34)[C@@H]1C2(C)C [prostratin, 12-deoxyphorbol-13-acetate]
level of APOBEC3G in peripheral blood lymphocytes [2]: upregulated

IL-15: cytokine
level of APOBEC3G in peripheral blood lymphocytes [2]: increased expression
